Results reported in US8354416B2 (Glaxo Group Limited, priority 2005, dated 2013).
Structures can show the parent of a compound that is named as a salt.

Tested on: influx of neutrophils to the lung in LPS-challenged rats
Experiment: Rat LPS neutrophilia model
Type: in vivo
Conditions: intratracheal, LPS aerosol 100 ug/ml, in at least one of the range of conditions tested, significance p<0.05
Protocol: Rat LPS Neutrophilia Model
The effect of compounds on the influx of neutrophils to the lung in LPS-challenged rats is evaluated as follows. The test compound is suspended in one of the following solutions: 0.5% tween 80/PBS, 0.5% tween 80/saline, 10% EtOH/saline (with pH adjusted to 2.0, or 8.0 with HCl, or unadjusted), Saline (pH 2.0, 6.5 or 8.0, 0.5% Tragacanth, 1% DMSO/20% Encapsin/Saline, or acidified 5% Tragacanth. The suspension process may be aided by the use of a glass homogenizer. For intratracheal administration, the animals are anesthetized with inhaled isoflurane and placed in a supine position, the trachea is intubated with a steel gavage needle (1.5 inch, 22 gauge, small ball) or a Penn-Century Microsprayer Aerosolizer (model IA-1B) and 200 ul of dosing solution is delivered. The animals are visually monitored during the recovery process, which typically occurs within two minutes. It is noted that the test compounds may be alternatively administered via the microsprayer in a dry powder blend with a suitable excipient, such as lactose.
Rats treated with compound or vehicle (15 min-24 hours pretreatment) are exposed to an LPS aerosol (100 ug/ml) for 15 min. Four hours later the rats are euthanized with pentobarbital (100 mg/kg, i.p.) and the airways are lavaged with 5 washes of 5 ml of phosphate buffered saline. The harvested cells are stained (Diffquick) and counted to determine total and differential cell data. […] Inhibition of neutrophil levels relative to no compound controls is calculated based on the differential counts.
The data is obtained as % inhibition using a particular concentration and pretreat time.

| Compound | inhibition of neutrophilia (neutrophil levels in airway lavage relative to no compound controls) |
| --- | --- |
| Cc1ccc(C(=O)NC(C)C)cc1-c1nc(N2CCC(N3CCC(C)CC3)CC2)nc2c1ccc(=O)n2-c1c(F)cccc1F [163(c), 3-[8-(2,6-difluorophenyl)-2-(4-methyl-1,4′-bipiperidin-1′-yl)-7-oxo-7,8-dihydropyrido[2,3-d]pyrimidin-4-yl]-4-methyl-N-(1-methylethyl)benzamide] | statistically nonsignificant inhibition of neutrophilia |
| Cc1ccc(NC(=O)c2cccc3cc[nH]c23)cc1-c1nc(NC(CO)CO)nc2c1ccc(=O)n2-c1c(F)cccc1F [Example 44, N-[3-(8-(2,6-difluorophenyl)-2-{[2-hydroxy-1-(hydroxymethyl)ethyl]amino}-7-oxo-7,8-dihydropyrido[2,3-d]pyrimidin-4-yl)-4-methylphenyl]-1H-indole-7-carboxamide trifluoroacetate] | statistically significant inhibition of neutrophilia |
| Cc1ccc(C(=O)NC(C)C)cc1-c1nc(N2CCC(N)CC2)nc2c1ccc(=O)n2-c1c(F)cccc1F [Example 68, 3-[2-(4-amino-1-piperidinyl)-8-(2,6-difluorophenyl)-7-oxo-7,8-dihydropyrido[2,3-d]pyrimidin-4-yl]-4-methyl-N-(1-methylethyl)benzamide] | statistically significant inhibition of neutrophilia |
| Cc1ccc(NC(=O)c2ccsc2)cc1-c1nc(N2CCC(N)CC2)nc2c1ccc(=O)n2-c1c(F)cccc1F [Example 32, N-{3-[2-(4-amino-1-piperidinyl)-8-(2,6-difluorophenyl)-7-oxo-7,8-dihydropyrido[2,3-d]pyrimidin-4-yl]-4-methylphenyl}-3-thiophenecarboxamide] | statistically nonsignificant inhibition of neutrophilia |
| CCC(C)NC(=O)c1ccc(C)c(-c2nc(NCCCN(CC)CC)nc3c2ccc(=O)n3-c2c(F)cccc2F)c1 (stereo not drawn) [Example 162, 3-[2-{[3-(diethylamino)propyl]amino}-8-(2,6-difluorophenyl)-7-oxo-7,8-dihydropyrido[2,3-d]pyrimidin-4-yl]-4-methyl-N-(1-methylpropyl)benzamide] | statistically nonsignificant inhibition of neutrophilia |
| CCN(CC)CCCNc1nc(-c2cc(C(=O)Nc3ccccc3)ccc2C)c2ccc(=O)n(-c3c(F)cccc3F)c2n1 [Example 147, 3-[2-{[3-(diethylamino)propyl]amino}-8-(2,6-difluorophenyl)-7-oxo-7,8-dihydropyrido[2,3-d]pyrimidin-4-yl]-4-methyl-N-phenylbenzamide] | statistically nonsignificant inhibition of neutrophilia |
| CCN(CC)CCCNc1nc(-c2cc(C(=O)NC3CCC3)ccc2C)c2ccc(=O)n(-c3c(F)cccc3F)c2n1 [Example 137, N-cyclobutyl-3-[2-{[3-(diethylamino)propyl]amino}-8-(2,6-difluorophenyl)-7-oxo-7,8-dihydropyrido[2,3-d]pyrimidin-4-yl]-4-methylbenzamide trifluoroacetate] | statistically significant inhibition of neutrophilia |
| Cc1ccc(C(=O)Nc2nccs2)cc1-c1nc(NC2CC(C)(C)NC(C)(C)C2)nc2c1ccc(=O)n2-c1c(F)cccc1F [Example 67, 3-{8-(2,6-difluorophenyl)-7-oxo-2-[(2,2,6,6-tetramethyl-4-piperidinyl)amino]-7,8-dihydropyrido[2,3-d]pyrimidin-4-yl}-4-methyl-N-1,3-thiazol-2-ylbenzamide] | statistically nonsignificant inhibition of neutrophilia |
| Cc1ccc(C(=O)NCC(C)C)cc1-c1nc(N2CCC(N3CCC(C)CC3)CC2)nc2c1ccc(=O)n2-c1c(F)cccc1F [Example 168, 3-[8-(2,6-difluorophenyl)-2-(4-methyl-1,4′-bipiperidin-1′-yl)-7-oxo-7,8-dihydropyrido[2,3-d]pyrimidin-4-yl]-4-methyl-N-(2-methylpropyl)benzamide] | inactive |
| CCCNCCNc1nc(-c2cc(C(=O)NC3CC3)ccc2C)c2ccc(=O)n(-c3c(F)cccc3F)c2n1 [Example 24, N-cyclopropyl-3-(8-(2,6-difluorophenyl)-7-oxo-2-{[2-(propylamino)ethyl]amino}-7,8-dihydropyrido[2,3-d]pyrimidin-4-yl)-4-methylbenzamide] | statistically nonsignificant inhibition of neutrophilia |
| CCCNC(=O)c1cc(F)c(C)c(-c2nc(NCCCN(CC)CC)nc3c2ccc(=O)n3-c2c(F)cccc2F)c1 [Example 181, 3-[2-{[3-(diethylamino)propyl]amino}-8-(2,6-difluorophenyl)-7-oxo-7,8-dihydropyrido[2,3-d]pyrimidin-4-yl]-5-fluoro-4-methyl-N-propylbenzamide] | statistically nonsignificant inhibition of neutrophilia |
| Cc1ccc(C(=O)NC2CC2)cc1-c1nc(N2CCC(N3CCC(C)CC3)CC2)nc2c1ccc(=O)n2-c1c(F)cccc1F [Example 178, N-cyclopropyl-3-[8-(2,6-difluorophenyl)-2-(4-methyl-1,4′-bipiperidin-1′-yl)-7-oxo-7,8-dihydropyrido[2,3-d]pyrimidin-4-yl]-4-methylbenzamide] | statistically nonsignificant inhibition of neutrophilia |
| CCCCNC(=O)c1ccc(C)c(-c2nc(N3CCC(N4CCC(C)CC4)CC3)nc3c2ccc(=O)n3-c2c(F)cccc2F)c1 [Example 167, N-butyl-3-[8-(2,6-difluorophenyl)-2-(4-methyl-1,4′-bipiperidin-1′-yl)-7-oxo-7,8-dihydropyrido[2,3-d]pyrimidin-4-yl]-4-methylbenzamide] | statistically significant inhibition of neutrophilia |
| CCN(CC)CCCNc1nc(-c2cc(C(=O)N[C@H](C)C(C)C)ccc2C)c2ccc(=O)n(-c3c(F)cccc3F)c2n1 [Example 130] | statistically nonsignificant inhibition of neutrophilia |
| Cc1ccc(C(=O)NC(C)C)cc1-c1nc(N(C)CCCN(C)C)nc2c1ccc(=O)n2-c1c(F)cccc1F [Example 34, 3-{8-(2,6-difluorophenyl)-2-[[3-(dimethylamino)propyl](methyl)amino]-7-oxo-7,8-dihydropyrido[2,3-d]pyrimidin-4-yl}-4-methyl-N-(1-methylethyl)benzamide] | statistically significant inhibition of neutrophilia |
| Cc1ccc(NC(=O)c2ccsc2)cc1-c1nc(NC2CC(C)(C)NC(C)(C)C2)nc2c1ccc(=O)n2-c1c(F)cccc1F [31(e), N-(3-{8-(2,6-difluorophenyl)-7-oxo-2-[(2,2,6,6-tetramethyl-4-piperidinyl)amino]-7,8-dihydropyrido[2,3-d]pyrimidin-4-yl}-4-methylphenyl)-3-thiophenecarboxamide] | statistically significant inhibition of neutrophilia |
| Cc1ccc(C(=O)Nc2ccc(F)cc2)cc1-c1nc(NCc2ncc[nH]2)nc2c1ccc(=O)n2-c1c(F)cccc1F [Example 78, 3-{8-(2,6-difluorophenyl)-2-[(1H-imidazol-2-ylmethyl)amino]-7-oxo-7,8-dihydropyrido[2,3-d]pyrimidin-4-yl}-N-(4-fluorophenyl)-4-methylbenzamide] | statistically significant inhibition of neutrophilia |
| Cc1ccc(C(=O)Nc2nccs2)cc1-c1nc(NCCN(C)C)nc2c1ccc(=O)n2-c1c(F)cccc1F [Example 109, 3-(8-(2,6-difluorophenyl)-2-{[2-(dimethylamino)ethyl]amino}-7-oxo-7,8-dihydropyrido[2,3-d]pyrimidin-4-yl)-4-methyl-N-1,3-thiazol-2-ylbenzamide] | statistically significant inhibition of neutrophilia |
| CCN(CC)CCCNc1nc(-c2cc(C(=O)NC3CC3)cc(F)c2C)c2ccc(=O)n(-c3c(F)cccc3F)c2n1 [Example 185, N-cyclopropyl-3-[2-{[3-(diethylamino)propyl]amino}-8-(2,6-difluorophenyl)-7-oxo-7,8-dihydropyrido[2,3-d]pyrimidin-4-yl]-5-fluoro-4-methylbenzamide] | statistically nonsignificant inhibition of neutrophilia |
| Cc1ccc(C(=O)Nc2ccc(F)cc2)cc1-c1nc(NC2CC(C)(C)NC(C)(C)C2)nc2c1ccc(=O)n2-c1c(F)cccc1F [Example 66, 3-{8-(2,6-difluorophenyl)-7-oxo-2-[(2,2,6,6-tetramethyl-4-piperidinyl)amino]-7,8-dihydropyrido[2,3-d]pyrimidin-4-yl}-N-(4-fluorophenyl)-4-methylbenzamide] | statistically significant inhibition of neutrophilia |
| Cc1ccc(C(=O)NC2CC2)cc1-c1nc(NCCN(C)C)nc2c1ccc(=O)n2-c1c(F)cccc1F [Example 25] | statistically nonsignificant inhibition of neutrophilia |
